# From patent publication US20260000684A1, “CANNABINOID COMPOSITIONS AGAINST CANCER, THEIR IDENTIFICATION AND PERSONALIZATION OF CANNABIS-BASED CANCER THERAPY” (UNIVERZA V MARIBORU, priority 2022, published 2026)
# What was measured:
# CaCo2 = test: Cell viability/proliferation; type: cell-based; settings: FIG. 10, preliminary analysis
# Description: (§1) Example 5: In a preliminary analysis, the inventors investigated the effect of 16 cannabinoid compounds (Δ9-THCV-C3, Δ9-THCVA-C3 A, Δ9-THCA-C5 A, Δ9-THC-C5, Δ8-THC-C5, CBN-C5, CBL-C5, CBLA-C5 A, (E)-CBG-C5, (E)-CBGA-C5 A, CBD-C5, CBDV-C3, CBDVA-C3, CBDA-C5, CBC-C5, and CBCA-C5 A) on cell viability/proliferation in two colorectal carcinoma cell lines (HCT116 and CaCo2) (FIG. 10).
# HCT116 = test: Cell viability/proliferation; type: cell-based; settings: FIG. 10, preliminary analysis
# Description: as §1
# [1] = test system: melanoma cell lines (COLO38 and OCM-1); settings: CB2 and CB1 expressing melanoma cell lines COLO38 and OCM-1; cited from earlier work
# [2] = test system: human A375, SK-MEL-28, and CHL-1 melanoma cell lines; settings: A375, SK-MEL-28, CHL-1; Armstrong et al.; cited from earlier work
compound,measurement,setting,value
"CCCCCc1cc(O)c2c(c1)OC(C)(C)c1ccc(C)cc1-2 [CBN, cannabinol]",effect in reducing cell viability,CaCo2,strongest effect in reducing cell viability
same,effect in reducing cell viability,HCT116,strongest effect in reducing cell viability
"CCCCCc1cc(O)c2c(c1)OC(C)(CCC=C(C)C)C=C2 (racemic) [CBC, (±)-cannabichromene]",effect in reducing cell viability,CaCo2,strongest effect in reducing cell viability
same,effect in reducing cell viability,HCT116,strongest effect in reducing cell viability
"(−)-cannabidiol [CBD, reference compound]",effect in reducing cell viability,CaCo2,strongest effect in reducing cell viability
same,effect in reducing cell viability,HCT116,strongest effect in reducing cell viability
"CCCCCc1cc(O)c2c(c1)OC(C)(C)[C@@H]1CC=C(C)C[C@@H]21 (relative stereo) [Δ8THC, (−)-Δ^8-trans-(6aR,10aR)-Δ^8-tetrahydrocannabinol]",effect in reducing cell viability,CaCo2,strongest effect in reducing cell viability
same,effect in reducing cell viability,HCT116,strongest effect in reducing cell viability
"Cc1c(C(=O)c2cccc3ccccc23)c2cccc3c2n1[C@H](CN1CCOCC1)CO3 [WIN55,212-2]",viability,[1],reduce viability in a CB1/CB2-independent manner
"CCCCCc1cc(O)c(C/C=C(\C)CCC=C(C)C)c(O)c1 [CBG, cannabigerol]",effect in reducing cell viability,CaCo2,strongest effect in reducing cell viability
same,effect in reducing cell viability,HCT116,strongest effect in reducing cell viability
"CCCCCc1cc(O)c2c(c1)OC(C)(C)[C@@H]1CCC(C)=C[C@@H]21 [Δ9THC, Δ^9-tetrahydrocannabinol, reference compound]",effect of treatment on melanoma cell lines,[2],"activation of autophagy, loss of cell viability, and activation of apoptosis"
same,effect in reducing cell viability,CaCo2,strongest effect in reducing cell viability
same,effect in reducing cell viability,HCT116,strongest effect in reducing cell viability
